According to article PMC12067444, “Synthesis and Pharmacological Characterization of Novel Peripheral Cannabinoid-1 Receptor Blockers Based on a Tricyclic Scaffold” (Journal of Medicinal Chemistry, 2025):
pIC50, pKi: −log10 of the molar value. Where two headings read alike, the source gives them in different places.

How the values were obtained:
human CB2R = target: T1, human CB2R (Homo sapiens, UniProt P34972); test: Radioligand competition displacement binding, [3H]CP-55,940, membranes with human CB2R; settings: [3H]CP-55,940 displacement, read-out: CB2R hKi
T1 construct: purchased PerkinElmer; Charles River RBXCB2M400UA; A618
Description: (§1) BNS compounds’ binding to CB1R and CB2R was assessed in competition displacement assays using [^3H]CP-55,940 as the radioligand and crude membranes from mouse brain or human cells overexpressing the CB1R or CB2R. All data were in triplicates with Ki values determined from three independent experiments. See SI for a detailed procedure.
Supplementary Experimental Methods […]
(§2) CB1R and CB2R binding. Binding to the CB1R/CB2R was asse ss ed using competition displacement as says with [ 3H] CP -55,940 as the radioligand. Purified membranes from the mouse brain were utilized for CB1R assessment (as described above). Purified […]
membranes from cells overexpressing human CB2R ( Char les River CAT # A618) w e r e employed for CB2R evaluation. […]
(§3) Radioligand binding assays were performed to asse ss the binding affinity of the different compounds to hCB1R (RBHCB1M4 00UA; Per kinElmer) or hCB 2R
(§4) (RBXCB2 M400UA; PerkinElmer). Competition displacement as says w ere employed, […]
(§5) utilizing [3H] C P -55,940 as the radioligand and crude membranes from humans for CB1 R or CB2 R. T he compounds were tested at various concentrations (eight points with a five-fold serial dilution starting at two m M) , and their ability to displace [3H] CP - 55, 940 was evaluated. Upon completion of the binding assays, the reaction mixture was filtered through GF/C plates, followed by four washes with cold wash buffer. After drying for one hour, 50 μL of Perkin Elmer Microscint 20 cocktail was added to the filter plate wells, and the bound [3H] C P -55,940 radioligand was measured using a β counter. All data points were duplicated, and Ki values were determined from two independent experiments using GraphPad Prism 7.02 analysis software, extracted through nonlinear regression analysis. […]
MgCl 2. The tissue was homogenized using a glass -Teflon and Hei-T ORQUE 200 homogenizer (Heidolph; Cat#17- 012- 002- 25 -1) set to 132 rpm. The resulting suspen sion underwent centrifugation at 48,000 × g for 20 min at four °C, and the supernatant was discarded. The pellet obtained was homogenized again and subjected to a second centrifugation under the same conditions. Subsequently, the resulting pellet […]
mM EGTA, 9 mM MgCl 2, and 150 mM NaCl, followed by homogenization. The protein concentration of the suspension was determined using the BCA assay, and the suspen sion was diluted to a final concentration of 2 mg/mL in assay buffer. The prepared suspension was aliquoted on ice and stored at - 80 °C for further use.

human CB1R = target: T2, human CB1R (Homo sapiens, UniProt P21554); test: Radioligand competition displacement binding, [3H]CP-55,940, membranes with human CB1R; settings: for pIC50: human CB1R, read-out: CB1R hIC50
T2 construct: purchased PerkinElmer RBHCB1M400UA
Description: as §1, with “procedure. […]” for “procedure.”
as §3, §4, §5

mouse CB1R = target: T3, mouse CB1R (Mus musculus, UniProt P47746); test: Radioligand competition displacement binding, [3H]CP-55,940, mouse brain membranes; settings: [3H]CP-55,940 displacement, mouse brain membranes; read-out: CB1R mKi
T3 construct: crude membranes from mouse brain; from tissue; host or cells: mouse brain cortex (without cerebellum) membranes, C57Bl/6Jhsd mice
Description: as §1
Supplementary Experimental Methods
Brain membrane preparation for CB1R b i nd i ng . The mouse cortex, excluding the cerebellum, was dissected from 6-week-old C57Bl/6Jhsd mice (Harlan, Israel). The tissue was homogenized in 4 mL Buffer 1 (320 mM sucrose, 2 mM EDTA, 5 m M MgCl 2) using a glass-Teflon homogenizer and Hei-T ORQUE 200 (Heidolph; Cat# 17-012- 002- 25 -1) homogenizer set to 132 rpm. After homogenization, the mixture was centrifuged at 1,600 × g for 10 min at four °C, and the resulting supernatant was kept on ice. The pellet (P1) was discarded, and the remaining supernatant was subje cted to additional rounds of resuspension in 4 mL Buffer 1 followed by centrifugations, repeating this process three times. The pellets obtained from these centrifugations were discarded, and the three supernatant fractions were combined and subjected to higher-speed centrifugation at 39,000 × g for 15 min at f ou r °C. […] This resuspended pellet ( P 2 ) was incubated at 37 °C for 10 min and then centrifuged at 23, 000 × g for 10 min at 4°C.
After centrifugation, the pellet (P2) was resuspended in 5 mL Buffer 2 and further incubated at 30 °C for 40 min. Following this incubation, the suspension was centrifuged at 11,000 × g for 15 min at 4 °C. The pellet (P2) was resuspended in 2 mL Buffer 3 containing 50 mM TRIS HCl pH 7.4, 1 mM EDTA, and 3 mM MgCl 2. T h e protein concentration of the final suspension was determined using the BCA assay.
Subsequently, the suspension was diluted to a final concentration of 2 mg/mL in Buffer 3, aliquoted on ice, and stored at - 80 °C for further use.
as §2
membranes from cells overexpressing human CB2R ( Char les River CAT # A618) w e r e employed for CB2R evaluation.
For mouse CB1R binding assays, the novel compounds were dissolved in dimethyl sulfoxide (DMSO) to reach a final concentration of 10 mM. Each compound was then diluted in Buffer 3 (as described above) supplemented with 0.14% BSA, resulting in concentrations ranging from 10^-4 M to 10^-10 M. Triplicates of 100 µL of each concentration were dispensed into siliconized glass tubes. At the same time, 100 µL of Buffer 3 with 0.14% BSA was dispensed into three tubes as blanks. CB1R b r a i n membranes (20 µg) were added to each tube and diluted with 800 µL Buffer 3 with 0.14% BSA. Subsequently, 5 nM of [ 3H] CP -55,940 (100 µL) was added to each tube.
The tubes were sealed with parafilm and incubated with shaking (120 rpm) in a water bath at 30 °C for 1 hour. Following incubation, 2 mL of cold Buffer 4 (50 mM TRIS HCl pH 7.4, 1 mg/mL BSA) was added to each tube.
To harvest the content of each tube, a Brandel M-24R Vacuum Harvester was employed, with a wet WHATMAN GF/B filter paper (Fired) (one membrane for 12 tubes) placed in the harvester after being washed twice with Buffer 4. The filter membrane in the harvester absorbed the full content of each tube. Then, the filter membrane was wash ed six times with Buffer 4. Each filter -glass membrane tube wa s excised and transferred to a 20 mL glass tube co ntaining a 5 mL ULTIMA GOLD scintillation cocktail. […]

HepG2 cells = test: Cell viability assay (CellTiter Glo); format: cell-based; settings: 72 h; for pIC50: Homo sapiens
Description: Cell viability assay. To assess the cell viability, which indicates the toxicity of the novel compounds, a total of 3,000 HepG2 cells were seeded into a 384-well plate. The compounds were then dispensed onto the cell plate using a Tecan D300e digital dispenser. Following compound addition, 35 μL CellTiter Glo reagent was added to all wells of the assay plate, and the plate was mixed for 30 sec on an or bital shaker to lyse cells. Subsequently, the plate was incubated at room temperature for 10 minutes. The luminescence signal was measured using a 384-well plate reader (EnVision). The obtained data were analyzed using XL-fit software (ID Business Solutions Ltd., Software version: XL fit 5. 5. 0. 5). The percentage of inhibition was calculated using the […]
Inhibition (%) = (1-Sample / ZPE) ×100
Sample represents the test compound's luminesc e nce signal, and ZPE represents the luminescence signal f r om the zer o-percent enzyme control.

mouse brain tissue = test: in vitro; settings: mouse, 5 h, 1 µM
Description: (§6) Protein binding of test compound in mouse brain using equilibrium dialysis […]
(§7) method. Solution A (0. 5 mM) was prepared by mixing 10 µL of a 10 mM stock solution […]
(§8) with 190 µL of DMSO. Subsequently, Solution B (0.02 mM) was prepared by adding […]
(§9) 8 µL of solution A to 192 µL of 0.05 M sodium phosphate buffer. The final concentration of DMSO in Solution B was 4%.
(§10) A 96-well plate was initially prepared by dispensing 380 µL aliquots of brain […]
(§11) tissue into wells designated for the brain while t h e buffer was added to the remaining […]
(§12) wells to serve as a control. Subsequently, 20 µL of Solution B (containing 0.02 mM of […]
(§13) test and reference compounds) was spiked into the pre-loaded brain samples in the […]
(§14) plate. This step yielded a final test concentration of 1 µM, containing 0.2% DMSO. A duplicate system was establi shed for the dialysis sampl es wherein brain tissu e was prepared against buffer. Initially, 100 µL aliquots of blank dialysis buffer were applied to the receiver side of the dialysis chambers. Subsequently, 100 µL aliquots of the brain […]
(§15) tissue spiked with te st and reference compounds were applied to the donor side of the […]
(§16) T0 brain samples for initial concentrations were prepared in duplicate. A 25µL […]
(§17) aliquot of the brain spiked with test and reference compounds was transferred into a 96- […]
(§18) well sample preparation plate. An equivalent volume of blank buffer was then added […]
(§19) to each well. Af ter the 5-hour incubation period, aliquots of 25 µL wer e taken f r om t h e […]
(§20) dialysis apparatus's donor and receiver sides and transferred into new sample […]
(§21) preparation plates. An equal volume of the opposite matrix (blank buffer to brain and […]
(§22) vice versa) was added to each well, resulting in a final volume of 50 µL in each well.
(§23) The samples (both T0 and f i v e h) were then quenched with 200 µL of acetonitrile […]
(§24) containing internal standard (IS) and vortexed at 600 rpm for 10 minutes. After […]
(§25) vortexing, the samples were centrifuged at 5594 × g for 15 minutes. Subsequently, 50 […]
(§26) µL of the supernatants were transferred to a new 96-well plate and mixed with 50 µL […]
(§27) of Milli- Q water. T he sample plates wer e cover ed and stor ed in a f r eezer ( -20 ℃) until […]
(§28) respectively. For data analysis, the following equations wer e used:
(§29) % Bound = 100 × ([Donor]5h -[ Receiver] 5h) / [Donor] 5h
(§30) % Recovery= 100 × ([Donor]5h +[Receiver] 5h) / [Initial] 0h
(§31) Undiluted Fu (%) = (1/D) / [(1/Fu2-1 ) + 1/ D ]
(§32) Whereas; D: Dilution factor = Dilution factor of brain: 4

in vitro = settings: mouse
Description: as §6, §7, §8, §9, §10, §11, §12, §13, §14, §15, §16, §17, §18, §19, §20, §21, §22, §23, §24, §25, §26, §27, §28, §29, §30, §31, §32

T2 sequence (P21554 whole entry): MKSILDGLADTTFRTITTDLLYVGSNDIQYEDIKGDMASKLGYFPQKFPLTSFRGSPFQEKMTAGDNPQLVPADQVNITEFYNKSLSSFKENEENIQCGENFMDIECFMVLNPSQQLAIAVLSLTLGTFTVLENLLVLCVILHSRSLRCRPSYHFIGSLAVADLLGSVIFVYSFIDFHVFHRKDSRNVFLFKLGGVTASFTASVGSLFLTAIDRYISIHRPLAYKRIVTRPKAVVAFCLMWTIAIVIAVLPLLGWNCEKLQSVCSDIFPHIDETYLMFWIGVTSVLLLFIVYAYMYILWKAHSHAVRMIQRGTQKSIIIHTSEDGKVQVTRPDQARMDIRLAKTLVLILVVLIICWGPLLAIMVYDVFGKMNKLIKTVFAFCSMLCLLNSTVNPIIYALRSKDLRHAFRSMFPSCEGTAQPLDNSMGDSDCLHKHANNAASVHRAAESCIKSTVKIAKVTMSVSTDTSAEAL
T1 sequence (P34972 whole entry): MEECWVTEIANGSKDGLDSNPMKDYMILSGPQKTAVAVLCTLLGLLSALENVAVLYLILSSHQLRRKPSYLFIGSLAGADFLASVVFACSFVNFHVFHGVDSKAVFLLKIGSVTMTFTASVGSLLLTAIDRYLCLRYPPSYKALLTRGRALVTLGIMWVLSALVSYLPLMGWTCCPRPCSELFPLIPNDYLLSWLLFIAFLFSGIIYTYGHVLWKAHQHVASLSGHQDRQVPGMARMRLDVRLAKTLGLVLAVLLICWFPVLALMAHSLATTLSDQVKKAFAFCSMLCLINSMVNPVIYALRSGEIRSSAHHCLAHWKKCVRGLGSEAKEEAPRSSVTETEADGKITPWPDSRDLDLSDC
T3 sequence (P47746 whole entry): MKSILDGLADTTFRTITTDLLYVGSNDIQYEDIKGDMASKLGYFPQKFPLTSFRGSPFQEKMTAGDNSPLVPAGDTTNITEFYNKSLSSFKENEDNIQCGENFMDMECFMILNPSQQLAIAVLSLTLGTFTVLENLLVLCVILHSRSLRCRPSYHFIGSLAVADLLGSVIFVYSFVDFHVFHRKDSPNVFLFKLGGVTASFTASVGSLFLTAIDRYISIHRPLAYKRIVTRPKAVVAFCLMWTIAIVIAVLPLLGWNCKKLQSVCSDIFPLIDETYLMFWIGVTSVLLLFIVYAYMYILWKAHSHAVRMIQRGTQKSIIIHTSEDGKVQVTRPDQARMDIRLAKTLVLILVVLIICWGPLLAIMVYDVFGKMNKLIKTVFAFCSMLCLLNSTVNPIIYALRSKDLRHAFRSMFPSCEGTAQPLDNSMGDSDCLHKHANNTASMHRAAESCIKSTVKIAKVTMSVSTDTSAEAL

| pKi (human CB2R) | pIC50 (human CB1R) | pKi (mouse CB1R) | pIC50 (HepG2 cells; read-out: cell viability Absolute IC50) | pIC50 (HepG2 cells; read-out: cell viability relative IC50) | pKi (human CB1R; [3H]CP-55,940 displacement, human CB1R membranes, read-out: CB1R hKi) | Fraction of bound (%) (mouse brain tissue) | Undiluted Bound (%) (mouse brain tissue) | fraction unbound at 5 h, 1 µM (in vitro) | fraction unbound at 5 h, 1 µM (in vitro; tissue homogenate) | SMILES | Bottom (%) of cell viability inhibition curve (HepG2 cells) [%] | Slope of cell viability inhibition curve (HepG2 cells) | Top (%) of cell viability inhibition curve (HepG2 cells) [%] |
| --- | --- | --- | --- | --- | --- | --- | --- | --- | --- | --- | --- | --- | --- |
| < 5.05 | 8.07 | 7.47 |  |  |  |  |  |  |  | CS(=O)(=O)NC1CCCOc2c1nn(-c1ccccc1Cl)c2-c1ccc(Cl)cc1 (stereo not shown) [BNS809, N-[2-(2-Chlorophenyl)-3-(4-chlorophenyl)-5,6,7,8-tetrahydrooxepino[3,2-c]pyrazol-8-yl]methanesulfonamide] |  |  |  |
| 6.90 | 8.42 | 8.80 | < 4.00 | < 4.00 | 8.51 |  |  |  |  | O=C(NC1CCCOc2c1nn(-c1ccccc1Cl)c2-c1ccc(Cl)cc1)C1CCN(S(=O)(=O)c2ccc(Cl)cc2)CC1 (stereo not shown) [BNS825, N-[2-(2-Chlorophenyl)-3-(4-chlorophenyl)-5,6,7,8-tetrahydrooxepino[3,2-c]pyrazol-8-yl]-1-(4-chlorophenyl)sulfonyl-piperidine-4-carboxamide] | -11.62 | -0.21 | 6.27 |
|  |  |  |  |  |  | 39.5 | 72.3 | 0.277 | 0.605 | CC(=O)CC(c1ccccc1)c1c(O)c2ccccc2oc1=O (stereo not shown) [Warfarin, reference compound] |  |  |  |
